US20110165085A1, “TUMOR SELECTIVE FLUORESCENT STAINING AGENT” (THE UNIVERSITY OF TOKYO, priority 2006, published 2011)

Assays:
[1] = system: RGK1 (transformed, cancer model) and RGM1 (normal gastric mucosal epithelium) cells; test: Flow cytometry screening: average fluorescence intensity ratio of RGK1 relative to RGM1; assay type: cell-based, rat
Procedure: Screening for candidate compounds was performed in a cultured cell system. As cultured cells, rat normal gastric mucosal epithelium derived cells, RGM1, and transformed cells thereof, RGK1, were used as model cells of normal cell and cancer cell, respectively. For the culture of RGM1 and RGK1, a DMEM/HAM F12 (1:1) medium (10% FBS, 0.1% penicillin streptomycin) was used. Each of the compounds shown below (concentration: 0-1 μM) was loaded on these cells for 10 minutes, then the medium was replaced with the medium not containing the compounds, and after a given time, average fluorescence intensity was determined by flow cytometry. Effectiveness of each compound was evaluated on the basis of average of fluorescence intensity ratio of RGK1 relative to RGM1.
Various ester derivatives converted from acetyl ester of FDA shown in Table I were compared by flow cytometry in the same manner as that used in Example 1.

[2] = system: cancer cells and normal cells; test: Imaging of cancer and normal cells under a fluorescence microscope; assay type: cell-based, rat; conditions: fluorescence microscope IX71, excitation 470-490 nm, filter 500 nm
Procedure: Imaging was performed by using FDAcr under a fluorescence microscope.

esophagus cancer lesion = test: Fluorescence endoscopic imaging of NMBA rat esophagus cancer model; assay type: in vivo; conditions: endoscope (FIG. 4)
Procedure: By using FDAcr, imaging of an NMBA rat, an esophagus cancer model, was performed. A rat (10-week old, male) was subcutaneously injected with 1 mg of NMBA 5 times per week for the first to 5th weeks, and once per week for 6th to 15th weeks, and used for the experiment after 16th week. The rat was anesthetized by intraperitoneal administration of Nembutal (1 mL/kg body weight) and fixed on a rest in the dorsal position to maintain the airway. An endoscope was inserted into the esophagus for observation. […] In the same manner as Example 5, a fluorescent endoscopic image was obtained by using Cy-7, a cyanine near-infrared fluorescent dye.

colon cancer lesion = test: Fluorescence endoscopic imaging of colon cancer model rat; assay type: in vivo; conditions: enema 15 ml of 100 μM in PBS, 3 minutes, fiberscope (FIG. 5)
Procedure: By using FEAcr, imaging of a colon cancer model rat was performed. A colon cancer model rat was anesthetized with ether, and inside the colon was washed with 0.6% aqueous acetic acid. The inside of the colon was washed two to three times with PBS maintained at 37° C., and then an enema with 15 ml of 100 μM FDAcr (PBS solution) was performed from the anus and the anus was clogged to stand for 3 minutes. After 3 minutes, the inside of the colon was washed two to three times with PBS maintained at 37° C. A fiberscope (BF-3C40) was inserted in the colon to observe pathological legions.

[3] = system: intracellular esterase (RGK1 and RGM1 cell lysates); test: Hydrolytic enzyme activity for FDA in the two types of cell lysates; assay type: biochemical, rat
Excerpt: FDA is an esterase-sensitive fluorescent probe, and it enters into a cell by diffusion, then is hydrolyzed by an intracellular esterase to produce a fluorescent fluorescein, and gradually leaks out of the cell. Since the fluorescein is more hydrophilic compared with FDA, the leakage of the fluorescein out of the cell occurs much more slowly than the uptake of FDA into the cell. This process was compared for the normal cells and the cancer cells.

SMILES | performance for distinguishing cancer cells from normal cells (fluorescence intensity ratio) ([1]; flow cytometry as in Example 1, compared among ester derivatives of Table 1 (FIG. 2)) | fluorescence in cancer cells versus normal cells [2] | fluorescence intensity around esophagus cancer lesion versus normal tissues (esophagus cancer lesion) | fluorescence at colon cancer lesion (colon cancer lesion) | hydrolytic activity for FDA, RGK1 versus RGM1 [3] | average of fluorescence intensity ratio of RGK1 relative to RGM1 ([1]; compound 0-1 μM loaded 10 minutes, medium replaced, flow cytometry after a given time, among candidate compounds (FIG. 1))
C=CC(=O)Oc1ccc2c(c1)Oc1cc(OC(=O)C=C)ccc1C21OC(=O)c2ccccc21 [FDAcr, fluorescein diacrylate] | superior performance for distinguishing cancer cells from normal cells | Strong fluorescence was observed in the cancer cells | higher than that of normal tissues | Strong fluorescence was observed at each colon cancer lesion |  | 
CC(=O)Oc1ccc2c(c1)Oc1cc(OC(C)=O)ccc1C21OC(=O)c2ccccc21 [FDA, fluorescein diacetate] |  |  |  |  | about twice higher hydrolytic activity | highest fluorescence intensity ratio
